Data reported in patent US10844077B2, “Thiazolyl-containing compounds for treating proliferative diseases” (Dana-Farber Cancer Institute, Inc., priority 2014, dated 2020).
“And” between values parts separate entries of the source, which are not always exact repeats. Equal values may be shown once.

Columns and labels:
Experiment in all cases: KINATIV assay
Assay type in all cases: cell-based
Conditions in all cases: 1 μM, 90 minutes, BCWM.1 cells
CDK6 = CDK6 (Homo sapiens (Human), UniProt Q00534)
Outline: (§1)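 Harvest, lyse, probe: lysates take up an ATP-biotin probe directly, and ACTIVX identifies and quantifies the kinases bound.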

CDK9 = CDK9 (Homo sapiens (Human), UniProt P50750)
Outline: as §1

CLK3 = CLK3 (Homo sapiens (Human), UniProt P49761)
Outline: as §1

CaMK1d = CaMK1d (Homo sapiens (Human), UniProt Q8IU85)
Outline: as §1

CaMK4 = CaMK4 (Homo sapiens (Human), UniProt Q16566)
Outline: as §1

EphB1 = EphB1 (Homo sapiens (Human), UniProt P54762)
Outline: as §1

Erk1 = Erk1 (Homo sapiens (Human), UniProt P27361)
Outline: as §1

Erk5 = Erk5 (Homo sapiens (Human), UniProt Q13164)
Outline: as §1

FRAP = FRAP (Homo sapiens (Human), UniProt P42345)
Outline: as §1

FYN, SRC, YES = test system: FYN, SRC, YES
Outline: as §1

GSK3A = GSK3A (Homo sapiens (Human), UniProt P49840)
Outline: as §1

IKKe, TBK1 = test system: IKKe, TBK1
Outline: as §1

ILK = ILK (Homo sapiens (Human), UniProt Q13418)
Outline: as §1

LYN = LYN (Homo sapiens (Human), UniProt P07948)
Outline: as §1

MAP2K1 = MAP2K1 (Homo sapiens (Human), UniProt Q02750)
Outline: as §1

MAP2K7 = MAP2K7 (Homo sapiens (Human), UniProt O14733)
Outline: as §1

MAP3K1 = MAP3K1 (Homo sapiens (Human), UniProt Q13233)
Outline: as §1

MAP3K2 = MAP3K2 (Homo sapiens (Human), UniProt Q9Y2U5)
Outline: as §1

MAP3K4 = MAP3K4 (Homo sapiens (Human), UniProt Q9Y6R4)
Outline: as §1

MAP3K5 = MAP3K5 (Homo sapiens (Human), UniProt Q99683)
Outline: as §1

MAP3K6 = MAP3K6 (Homo sapiens (Human), UniProt O95382)
Outline: as §1

MARK2, MARK3 = test system: MARK2, MARK3
Outline: as §1

MARK3, MARK4 = test system: MARK3, MARK4
Outline: as §1

MSK1 domain1 = MSK1 domain1 (Homo sapiens (Human), UniProt O75582)
Outline: as §1

MSK1, MSK2 domain1 = test system: MSK1, MSK2 domain1
Outline: as §1

MST4 = MST4 (Homo sapiens (Human), UniProt Q9P289)
Outline: as §1

NEK8 = NEK8 (Homo sapiens (Human), UniProt Q86SG6)
Outline: as §1

OSR1 = OSR1 (Homo sapiens (Human), UniProt O95747)
Outline: as §1

PIP5K3 = PIP5K3 (Homo sapiens (Human), UniProt Q9Y2I7)
Outline: as §1

PKD1, PKD2 = test system: PKD1, PKD2
Outline: as §1

PKD2 = PKD2 (Homo sapiens (Human), UniProt Q9BZL6)
Outline: as §1

PKN1 = PKN1 (Homo sapiens (Human), UniProt Q16512)
Outline: as §1

RSK2 domain2 = RSK2 domain2 (Homo sapiens (Human), UniProt P51812)
Outline: as §1

RSK3 = RSK3 (Homo sapiens (Human), UniProt Q15349)
Outline: as §1

SRC = SRC (Homo sapiens (Human), UniProt P12931)
Outline: as §1

TAK1 = TAK1 (Homo sapiens (Human), UniProt O43318)
Outline: as §1

TEC = TEC (Homo sapiens (Human), UniProt P42680)
Outline: as §1

TYK2 domain2 = TYK2 domain2 (Homo sapiens (Human), UniProt P29597)
Outline: as §1

YSK1 = YSK1 (Homo sapiens (Human), UniProt O00506)
Outline: as §1

eEF2K = eEF2K (Homo sapiens (Human), UniProt O00418)
Outline: as §1

MAP2K6 = MAP2K6 (Homo sapiens (Human), UniProt P52564)
Outline: as §1

Chain of CaMK1d (Q8IU85 whole entry): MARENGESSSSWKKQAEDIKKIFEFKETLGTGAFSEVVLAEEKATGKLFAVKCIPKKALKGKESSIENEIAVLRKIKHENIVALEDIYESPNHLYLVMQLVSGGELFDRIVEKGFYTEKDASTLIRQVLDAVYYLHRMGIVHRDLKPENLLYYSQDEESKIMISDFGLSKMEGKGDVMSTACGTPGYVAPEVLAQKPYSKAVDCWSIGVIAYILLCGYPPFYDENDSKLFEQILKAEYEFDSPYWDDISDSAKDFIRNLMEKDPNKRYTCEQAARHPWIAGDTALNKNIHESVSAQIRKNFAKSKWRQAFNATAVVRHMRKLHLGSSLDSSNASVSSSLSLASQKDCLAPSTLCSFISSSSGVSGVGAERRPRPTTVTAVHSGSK
Chain of TEC (P42680 whole entry): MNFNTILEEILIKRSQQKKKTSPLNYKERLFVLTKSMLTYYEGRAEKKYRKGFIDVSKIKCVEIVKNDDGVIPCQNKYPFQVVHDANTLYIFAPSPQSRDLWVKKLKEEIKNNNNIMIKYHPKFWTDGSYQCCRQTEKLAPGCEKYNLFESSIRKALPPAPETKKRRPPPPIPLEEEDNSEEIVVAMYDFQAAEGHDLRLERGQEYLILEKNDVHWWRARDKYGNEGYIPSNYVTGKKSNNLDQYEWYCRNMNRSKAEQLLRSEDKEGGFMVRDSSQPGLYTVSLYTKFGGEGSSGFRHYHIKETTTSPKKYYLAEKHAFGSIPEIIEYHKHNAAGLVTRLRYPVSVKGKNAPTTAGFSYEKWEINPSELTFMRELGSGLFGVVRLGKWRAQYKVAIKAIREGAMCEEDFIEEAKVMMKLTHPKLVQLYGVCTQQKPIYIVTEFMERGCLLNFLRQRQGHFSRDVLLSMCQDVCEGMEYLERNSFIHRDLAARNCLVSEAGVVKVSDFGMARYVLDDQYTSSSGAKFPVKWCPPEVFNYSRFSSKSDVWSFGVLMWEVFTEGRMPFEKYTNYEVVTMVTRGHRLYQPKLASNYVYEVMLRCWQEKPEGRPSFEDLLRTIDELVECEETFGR
Chain of LYN (P07948 whole entry): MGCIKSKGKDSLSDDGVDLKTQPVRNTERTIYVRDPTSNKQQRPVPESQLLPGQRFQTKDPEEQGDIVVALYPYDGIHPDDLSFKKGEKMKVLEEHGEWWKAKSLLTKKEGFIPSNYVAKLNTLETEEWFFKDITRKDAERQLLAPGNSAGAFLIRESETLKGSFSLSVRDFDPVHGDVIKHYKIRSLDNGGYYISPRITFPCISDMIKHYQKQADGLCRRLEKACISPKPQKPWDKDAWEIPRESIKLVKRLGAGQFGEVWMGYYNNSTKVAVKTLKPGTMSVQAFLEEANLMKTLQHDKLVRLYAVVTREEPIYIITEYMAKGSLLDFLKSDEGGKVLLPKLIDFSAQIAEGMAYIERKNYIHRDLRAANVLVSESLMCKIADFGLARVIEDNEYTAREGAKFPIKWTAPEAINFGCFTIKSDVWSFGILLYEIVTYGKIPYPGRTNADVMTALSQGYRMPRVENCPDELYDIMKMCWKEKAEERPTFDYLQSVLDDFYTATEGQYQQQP
Chain of MAP3K4 (Q9Y6R4 whole entry): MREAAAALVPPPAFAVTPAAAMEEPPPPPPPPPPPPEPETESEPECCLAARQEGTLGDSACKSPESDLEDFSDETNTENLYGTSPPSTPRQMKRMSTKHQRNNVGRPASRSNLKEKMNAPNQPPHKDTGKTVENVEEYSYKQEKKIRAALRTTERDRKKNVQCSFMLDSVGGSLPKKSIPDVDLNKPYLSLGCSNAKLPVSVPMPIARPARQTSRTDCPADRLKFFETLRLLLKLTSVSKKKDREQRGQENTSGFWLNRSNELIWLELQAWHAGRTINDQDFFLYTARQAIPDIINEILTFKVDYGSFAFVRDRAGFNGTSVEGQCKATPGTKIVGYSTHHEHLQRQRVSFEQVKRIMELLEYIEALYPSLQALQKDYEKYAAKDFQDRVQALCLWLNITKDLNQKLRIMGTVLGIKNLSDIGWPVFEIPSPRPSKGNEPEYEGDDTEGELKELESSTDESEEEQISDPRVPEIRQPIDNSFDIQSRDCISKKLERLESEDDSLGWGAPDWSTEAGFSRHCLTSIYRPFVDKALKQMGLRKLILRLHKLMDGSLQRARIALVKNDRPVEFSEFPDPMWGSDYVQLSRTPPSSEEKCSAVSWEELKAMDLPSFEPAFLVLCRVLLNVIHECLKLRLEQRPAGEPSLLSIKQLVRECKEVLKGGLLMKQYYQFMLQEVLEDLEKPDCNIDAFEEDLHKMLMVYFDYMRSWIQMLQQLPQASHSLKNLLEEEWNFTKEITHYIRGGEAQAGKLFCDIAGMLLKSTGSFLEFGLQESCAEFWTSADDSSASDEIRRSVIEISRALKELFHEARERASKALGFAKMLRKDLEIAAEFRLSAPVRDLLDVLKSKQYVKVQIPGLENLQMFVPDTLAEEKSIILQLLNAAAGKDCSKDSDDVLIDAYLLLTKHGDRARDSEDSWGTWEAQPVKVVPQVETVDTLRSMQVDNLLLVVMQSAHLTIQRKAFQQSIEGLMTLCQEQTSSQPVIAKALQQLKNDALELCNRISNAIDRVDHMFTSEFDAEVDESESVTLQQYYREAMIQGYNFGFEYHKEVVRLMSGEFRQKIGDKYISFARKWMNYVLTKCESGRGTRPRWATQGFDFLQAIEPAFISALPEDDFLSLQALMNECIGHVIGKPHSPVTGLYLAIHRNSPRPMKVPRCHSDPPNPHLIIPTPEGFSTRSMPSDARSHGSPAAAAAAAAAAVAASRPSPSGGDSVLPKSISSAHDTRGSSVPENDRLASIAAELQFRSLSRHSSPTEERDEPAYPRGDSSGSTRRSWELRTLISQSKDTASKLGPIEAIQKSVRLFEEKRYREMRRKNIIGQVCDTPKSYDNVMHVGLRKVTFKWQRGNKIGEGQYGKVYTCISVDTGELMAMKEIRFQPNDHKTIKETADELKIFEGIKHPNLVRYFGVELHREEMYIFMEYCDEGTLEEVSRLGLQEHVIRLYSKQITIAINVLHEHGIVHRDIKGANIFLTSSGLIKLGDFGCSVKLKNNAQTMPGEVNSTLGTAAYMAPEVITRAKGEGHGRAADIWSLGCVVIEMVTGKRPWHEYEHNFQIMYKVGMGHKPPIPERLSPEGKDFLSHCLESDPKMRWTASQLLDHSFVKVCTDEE
Chain of EphB1 (P54762 18-984): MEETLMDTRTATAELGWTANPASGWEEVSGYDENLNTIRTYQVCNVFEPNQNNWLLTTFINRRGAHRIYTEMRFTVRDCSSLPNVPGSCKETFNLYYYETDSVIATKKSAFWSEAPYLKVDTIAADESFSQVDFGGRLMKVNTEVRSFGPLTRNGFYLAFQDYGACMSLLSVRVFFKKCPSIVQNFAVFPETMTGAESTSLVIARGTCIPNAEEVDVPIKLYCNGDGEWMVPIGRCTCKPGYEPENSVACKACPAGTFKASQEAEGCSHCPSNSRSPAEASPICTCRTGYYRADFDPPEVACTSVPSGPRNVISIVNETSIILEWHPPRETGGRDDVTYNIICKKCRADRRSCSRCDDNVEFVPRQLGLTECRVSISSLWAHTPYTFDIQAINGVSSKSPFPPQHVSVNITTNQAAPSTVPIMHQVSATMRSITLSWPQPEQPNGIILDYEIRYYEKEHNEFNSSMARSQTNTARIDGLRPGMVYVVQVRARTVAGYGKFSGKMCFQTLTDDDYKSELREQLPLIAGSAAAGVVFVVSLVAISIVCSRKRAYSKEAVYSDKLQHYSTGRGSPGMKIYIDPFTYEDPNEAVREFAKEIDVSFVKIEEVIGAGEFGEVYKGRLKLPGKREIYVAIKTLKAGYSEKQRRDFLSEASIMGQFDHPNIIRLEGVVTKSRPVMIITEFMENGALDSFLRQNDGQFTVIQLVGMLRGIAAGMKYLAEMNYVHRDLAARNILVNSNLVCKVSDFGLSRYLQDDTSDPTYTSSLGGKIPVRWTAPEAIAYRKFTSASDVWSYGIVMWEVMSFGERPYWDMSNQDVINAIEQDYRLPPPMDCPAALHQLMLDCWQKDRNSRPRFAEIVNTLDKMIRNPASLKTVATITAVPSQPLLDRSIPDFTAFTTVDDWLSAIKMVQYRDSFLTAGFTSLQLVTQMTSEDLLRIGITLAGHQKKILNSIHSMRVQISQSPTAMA
Chain of MST4 (Q9P289 whole entry): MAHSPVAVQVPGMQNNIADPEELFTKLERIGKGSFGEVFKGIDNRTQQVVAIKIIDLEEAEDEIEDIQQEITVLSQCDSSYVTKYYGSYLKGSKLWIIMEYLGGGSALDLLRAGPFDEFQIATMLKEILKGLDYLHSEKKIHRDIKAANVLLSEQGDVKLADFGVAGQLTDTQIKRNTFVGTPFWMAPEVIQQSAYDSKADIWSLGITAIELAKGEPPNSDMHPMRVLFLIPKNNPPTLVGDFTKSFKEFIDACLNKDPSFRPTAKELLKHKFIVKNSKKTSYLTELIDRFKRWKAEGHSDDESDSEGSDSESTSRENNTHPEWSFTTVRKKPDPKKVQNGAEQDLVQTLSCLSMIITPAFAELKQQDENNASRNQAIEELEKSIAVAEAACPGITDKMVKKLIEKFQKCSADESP
Chain of CLK3 (P49761 whole entry): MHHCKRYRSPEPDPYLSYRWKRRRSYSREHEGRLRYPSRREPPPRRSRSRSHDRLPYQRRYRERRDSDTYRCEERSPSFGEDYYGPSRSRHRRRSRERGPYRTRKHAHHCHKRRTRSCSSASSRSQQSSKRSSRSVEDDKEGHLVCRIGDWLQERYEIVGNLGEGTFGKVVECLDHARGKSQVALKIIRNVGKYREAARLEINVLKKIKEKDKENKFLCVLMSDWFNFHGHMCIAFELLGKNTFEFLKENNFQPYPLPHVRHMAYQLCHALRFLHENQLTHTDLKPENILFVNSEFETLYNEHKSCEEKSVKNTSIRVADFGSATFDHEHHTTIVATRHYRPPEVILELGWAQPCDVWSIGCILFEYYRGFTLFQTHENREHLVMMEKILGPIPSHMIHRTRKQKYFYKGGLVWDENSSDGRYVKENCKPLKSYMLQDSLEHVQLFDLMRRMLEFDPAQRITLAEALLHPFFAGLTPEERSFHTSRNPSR

Row | SMILES | % change of MS signal compared to control sample (CDK6) | % change of MS signal compared to control sample (CDK9) | % change of MS signal compared to control sample (CLK3) | % change of MS signal compared to control sample (CaMK1d) | % change of MS signal compared to control sample (CaMK4) | % change of MS signal compared to control sample (EphB1) | % change of MS signal compared to control sample (Erk1) | % change of MS signal compared to control sample (Erk5) | % change of MS signal compared to control sample (FRAP) | % change of MS signal compared to control sample (FYN, SRC, YES) | % change of MS signal compared to control sample (GSK3A) | % change of MS signal compared to control sample (IKKe, TBK1) | % change of MS signal compared to control sample (LYN) | % change of MS signal compared to control sample (MAP2K1) | % change of MS signal compared to control sample (MAP2K7) | % change of MS signal compared to control sample (MAP3K1) | % change of MS signal compared to control sample (MAP3K2) | % change of MS signal compared to control sample (MAP3K4) | % change of MS signal compared to control sample (MAP3K5) | % change of MS signal compared to control sample (MAP3K6) | other results
1 | C=CC(=O)N1CCC(CNc2nccc(Nc3ncc(C(=O)Nc4c(C)cccc4C)s3)n2)C1 (racemic) [Example I-8] | 4.5% | −5.2% | −14.9% | −14.1% and −8.7% | −26.3% | >97% | −19.7% | −11.4% | −5.2% | 97.9% | −14.2% | 5.5% | >97% and >90% | 1.0% | −7.5% | 15.5% | 3.5% | 12.8% | −0.7% | −8.1% | % change of MS signal compared to control sample (ILK): 19.4% and 36.6%; % change of MS signal compared to control sample (MARK2, MARK3): 7.5%; % change of MS signal compared to control sample (MARK3, MARK4): 5.8%; % change of MS signal compared to control sample (MSK1 domain1): −45.5%; % change of MS signal compared to control sample (MSK1, MSK2 domain1): −29.7%; % change of MS signal compared to control sample (MST4): −0.8%; % change of MS signal compared to control sample (NEK8): 13.1%; % change of MS signal compared to control sample (OSR1): 27.9%; % change of MS signal compared to control sample (PIP5K3): 4.2%; % change of MS signal compared to control sample (PKD1, PKD2): −15.3%; % change of MS signal compared to control sample (PKD2): 8.7%; % change of MS signal compared to control sample (PKN1): 13.7%; % change of MS signal compared to control sample (RSK2 domain2): −6.8%; % change of MS signal compared to control sample (RSK3): 2.9%; % change of MS signal compared to control sample (SRC): >90%; % change of MS signal compared to control sample (TAK1): 9.7%; % change of MS signal compared to control sample (TEC): 79.5% and 71.1%; % change of MS signal compared to control sample (TYK2 domain2): −44.6%; % change of MS signal compared to control sample (YSK1): −29.2%; % change of MS signal compared to control sample (eEF2K): −1.5%
2 | C=CC(=O)N1CCC(Cn2ccc(Nc3ncc(C(=O)Nc4c(C)cccc4Cl)s3)n2)C1 (centres unmarked) [II-1] | 6.0% | −57.0% | −22.6% | −7.9% and −2.8% | −10.3% | 91.0% | −17.6% | −14.2% | 8.6% | 88.1% | −11.8% | −27.2% | 88.1% and >90% | −23.4% | −0.6% | −1.2% | 21.3% | −23.9% | −22.9% | 18.9% | % change of MS signal compared to control sample (MAP2K6): −8.3% and −12.6%; % change of MS signal compared to control sample (MARK2, MARK3): −10.1%; % change of MS signal compared to control sample (MARK3, MARK4): 17.4%; % change of MS signal compared to control sample (MSK1 domain1): −35.0%; % change of MS signal compared to control sample (MSK1, MSK2 domain1): −37.4%; % change of MS signal compared to control sample (MST4): 21.1%; % change of MS signal compared to control sample (NEK8): 6.5%; % change of MS signal compared to control sample (OSR1): 16.4%; % change of MS signal compared to control sample (PIP5K3): 16.3%; % change of MS signal compared to control sample (PKD1, PKD2): −19.8%; % change of MS signal compared to control sample (PKD2): 12.7%; % change of MS signal compared to control sample (PKN1): 20.9%; % change of MS signal compared to control sample (RSK2 domain2): 9.7%; % change of MS signal compared to control sample (RSK3): 22.3%; % change of MS signal compared to control sample (SRC): >90%; % change of MS signal compared to control sample (TAK1): 25.6%; % change of MS signal compared to control sample (TEC): 91.5% and 80.8%; % change of MS signal compared to control sample (TYK2 domain2): −19.0%; % change of MS signal compared to control sample (YSK1): −27.4%; % change of MS signal compared to control sample (eEF2K): −3.8%
